Results on 14 molecules are retold here after patent US20260317356A1, “SMALL MOLECULE MODULATORS OF OGG1” (AZKARRA THERAPEUTICS, INC., priority 2023, published 2026).

The target of one assay is T1, nLucOGG1 in HeLa cells (Homo sapiens, UniProt O15527).
T1 construct: thermal shift read by NanoGlo luminescence
The experiment in a line: Cellular Thermal Shift Assay to measure compound affinity for nLucOGG1 in HeLa cells (CETSA DTm). Format: cell-based. The settings on record: 10 μM compound, 37° C. 60 min, Tm vs DMSO control. Here is the method: Biological Example 2: Cellular Thermal Shift Assay to Measure Compound Affinity for ^nLucOGG1 in HeLa Cells (CETSA DTm)
Cell Culture and Transfection of Hela Cells with ^nLucOGG1: For all tests, Hela cells were maintained in growth medium, Dulbecco's Minimum Eagle Medium (Multicell: Cat #319-005-CL) supplemented with 10% heat-inactivated fetal bovine serum (Gibco: Cat #12484-028) at 37° C. and 5% CO2 in a humidified tissue culture incubator. Transient transfections were performed using the Lonza 4-D Nucleofector X unit according to the manufacturer's protocol (Lonza Cat #V4XC-1024). Briefly, for each transfection, 1.2×10^6 cells were centrifuged at 1000 RPM for 5 minutes at room temperature before being diluted in 100 μL SE solution containing 18% v/v supplement and 1.5 μg pNF1-N-empty or pNF1-N-OGG1a vector. The total volume was transferred to a 100 μL nucleofection cuvette prior to transfer to the apparatus where HeLa cell nucleofection protocol CN-114 was executed. Following nucleofection, 500 μL complete media was added to the cells in the cuvette before transferring to a 6-well dish containing 1.5 mL of complete media. Cells were left to incubate for 48 hours before performing all cellular thermal shift experiments.
Cellular Thermal Shift Assays for Target Engagement (CETSA): Forty-eight hours following nucleofection, cells were washed once with DPBS−/−(Multicell: Cat #311-425-CL) and lifted with 0.25% Trypsin-EDTA (Multicell: Cat #325-043-CL) prior to dilution in growth medium and centrifugation at 1000 RPM for 5 minutes at room temperature. The resulting cell pellet was then resuspended in growth medium, cells were counted and the volume adjusted to 500 k cells/mL (2×).
For delta Tm determination, OGG1 inhibitor compounds were dissolved in DMSO to a final working concentration of 20 mM. Working solutions were then diluted in complete media to 20 μM or 0.1% DMSO for the vehicle control (2×). 2×OGG1 inhibitor compound solutions or 0.1% DMSO control were then pre-dispensed into MicroAmp Optical 96-well PCR reaction plates (Applied Biosystems: Cat #4346906) at 50 μL/well. Next, 50 μL or 25 k cells/well from the 2× cell suspension was added to the pre-loaded PCR plates. All plates were prepared as duplicates, covered with adhesive plate sealers (Perkin Elmer: Cat #6050185) and left to incubate at 37° C. for 60 minutes. During incubation, sufficient NanoGlo luciferase assay reagents (Promega: Cat #N1120) were left to equilibrate to room temperature in the dark. Immediately before heating the plates, the NanoGlo substrate was mixed with the NanoGlo buffer at a 1:50 ratio. The thermal cycler (Veriti 96-Well Thermal Cycler, Thermo Fisher Scientific) was allowed to reach the designated temperature prior to placement of the PCR plate into the heating block. For Tm determination experiments, duplicate plates containing a fixed concentration of test compound (10 μM final) as well as vehicle control were prepared to perform a 12-point temperature gradient spanning 37-70° C. for 3 minutes. Therefore, two thermal cycler protocols were set up covering two 6-step temperature gradients ranging from 37-52° C. and 52-70° C. Plates were then allowed to cool at room temperature for 5 minutes after the heat treatment followed by transfer of 75 μL of the reaction into a 96-well white polystyrene microplate (Corning: Cat #CLS3903) and addition of 75 μL of the prepared NanoGlo mixture. Microplates were then left to shake in the dark for 5 minutes before total luminescence was measured on a SpectraMax IX3 plate reader. The luminescence value obtained at each temperature was normalized to the luminescence obtained at 37° C. and the ratio obtained was plotted against the temperature. A Boltzman Sigmoidal non-linear regression was applied to the resulting data to determine Tm values and the difference between the Tm value for a given OGG1 inhibitor relative to the DMSO vehicle control was the delta Tm.

In assay [1] the target is T2, hOGG1 (Homo sapiens, UniProt O15527). The assay is described as follows: Surface Plasma Resonance with hOGG1 to measure compound affinity (OGG1 SPR Kd). Type of assay: binding. Details: Protein His-hOGG1 (12-323) was prepared. The note with it: Biacore T-200, immobilized his-tagged OGG1; pH 7.4; 2% DMSO; single-cycle kinetics. Here is the method:
Surface Plasma Resonance with hOGG1 to Measure Compound Affinity (OGG1 SPR Kd); All the SPR studies were performed on a Biacore T-200 instrument (Cytiva life sciences) using series S NTA sensor chip (cat #BR-1005-32, Cytiva life sciences). Recombinant his-tagged OGG1 (mol. wt. 36003; ChemPartner, Shanghai, China) was immobilized on NTA sensor chip via Ni^2+/NTA chelation using NTA reagent kit (Cytiva life sciences; cat #289950) as per manufacturer's recommended protocol. The running buffer during immobilization contained HEPES (20 mM, pH 7.4), 150 mM NaCl, 0.5 mM TCEP (tris(2-carboxyethyl)phosphine), and 0.005% Tween-20. NTA sensor chip (experimental cell) was first conditioned by injecting regeneration solution (350 mM EDTA, flow rate 30 μL/min, 2 injections 60 each). Additional wash with 50 mM NaOH was used whenever the chip was regenerated (flow rate 30 μL/min, 1 injection of 60 s). The sensor chip was then activated with 0.5 mM NiCl2 (flow rate 10 μL/min, 2 injection of 60 s, leading to a baseline increase of ~40 RU), and the excess Ni^2+ was removed using immobilization buffer containing 3 mM EDTA (flow rate 10 μL/min, 1 injection of 60 s). Finally, OGG1 (diluted to 6.2 μg/mL in running buffer) was injected on the activated sensor chip at a flow rate of 10 μL/min until immobilization level reached ~6000 RU. Any loosely bound protein was removed by passing the immobilization buffer overnight at 20 μL/min. At this point, the drift in baseline was ~0.01 RU/s and the final immobilization level was ~2500 RU. Reference cell was left untreated. SPR binding experiments were performed using binding buffer (20 mM HEPES (pH 7.4), 150 mM NaCl, 0.5 mM TCEP, 0.005% Tween-20, and 2% DMSO) at a flow rate of 30 μL/min. Single-cycle kinetics approach was used for binding analysis which consisted of sequential injections of increasing concentrations of test compound (a 3-fold serial dilution with 5 concentrations; highest 750 or 1500 nM; with final DMSO concentration at 2%) over the immobilized protein without regeneration step between each sample injection. Each injection was 45 seconds long (contact time), followed by a final dissociation of 600 sec. The Biacore T-200 Evaluation software 3.1 (GE Healthcare) was used to determine kinetic parameters from SPR data. All the reported sensograms were reference subtracted and corrected for refractive index contributions from solvent using 8-point solvent correction (1.4 to 2.8% DMSO in binding buffer). Data were fit to both steady state and 1:1 kinetic model to obtain Kon, Koff and binding affinity (Kd).
Background: SPR reads the build-up and loss of mass on a sensor chip optically.

The target of assay [2] is T2, hOGG1. The assay is described as follows: Biochemical fluorescence assay to measure enzymatic activity of hOGG1 (OGG1/APEX IC50). The note with it: 1 nM OGG1+2 nM APEX+6 nM dsDNA (8-oxo-dG substrate); pH 7.5; RT 40 min; read-out: OGG1/APEX IC50. On the set-up: Protein His-hOGG1 (12-323) was prepared; His (N); host or cells: E. coli. Summed up: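 His-hOGG1 (12-323, E. coli) at 1 nM with 2 nM hAPE1/APEX1, preincubated 20 min RT with compound. Then 6 nM 8-oxo-dG dsDNA substrate added, 40 min at RT in Tris pH 7.5, 100 mM KCl. TAMRA fluorescence (Ex520/Em600) converted to % inhibition vs controls; IC50 from 3-parameter fit of 10-point curve.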

Molecules are shown by their SMILES. Where only a bound is given, the exact number is not on record here.

The term ΔTm denotes the change in melting temperature against a reference sample. For orientation: Kd means the constant that tells how readily two partners part at equilibrium.

T2 sequence (O15527 12-323): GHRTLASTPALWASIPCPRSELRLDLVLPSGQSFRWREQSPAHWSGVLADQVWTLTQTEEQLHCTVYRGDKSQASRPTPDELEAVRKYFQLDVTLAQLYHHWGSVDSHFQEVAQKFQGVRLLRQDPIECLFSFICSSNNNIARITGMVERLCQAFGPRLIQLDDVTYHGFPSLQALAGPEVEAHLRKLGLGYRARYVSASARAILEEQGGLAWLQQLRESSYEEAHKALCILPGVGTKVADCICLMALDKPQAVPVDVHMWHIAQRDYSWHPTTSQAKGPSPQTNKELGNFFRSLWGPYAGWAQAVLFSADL
T1 sequence (O15527 whole entry): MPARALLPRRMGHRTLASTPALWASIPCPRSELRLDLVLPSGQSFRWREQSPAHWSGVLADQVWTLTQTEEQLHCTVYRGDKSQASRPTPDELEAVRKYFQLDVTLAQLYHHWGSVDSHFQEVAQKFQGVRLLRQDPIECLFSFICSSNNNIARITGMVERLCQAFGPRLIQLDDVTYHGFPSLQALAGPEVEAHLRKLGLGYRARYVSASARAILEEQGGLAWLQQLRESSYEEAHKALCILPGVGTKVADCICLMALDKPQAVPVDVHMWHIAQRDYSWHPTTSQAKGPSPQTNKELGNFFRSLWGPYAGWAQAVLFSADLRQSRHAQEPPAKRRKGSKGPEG

For `COc1ccc(NC(=O)[C@]2(C)CC[C@@H](N3Cc4c(C)ccc(OC)c4NC3=O)CC2)cc1Cl` (single isomer, unassigned) [Example 6, (1r,4r)-N-(3-Chloro-4-methoxyphenyl)-4-(8-methoxy-5-methyl-2-oxo-1,2-dihydroquinazolin-3(4H)-yl)-1-methylcyclohexanecarboxamide], the shift in melting temperature (ΔTm) at 10 µM on nLucOGG1 in HeLa cells was ≤ 6 °C. The Kd at hOGG1 [1] was > 1 µM.

For `COc1ccc(NC(=O)[C@]2(C)CC[C@@H](N3Cc4c(C)ccc(OC)c4NC3=O)CC2)cc1C#N` (single isomer, unassigned) [Example 8, (1r,4r)-N-(3-cyano-4-methoxyphenyl)-4-(8-methoxy-5-methyl-2-oxo-1,2-dihydroquinazolin-3(4H)-yl)-1-methylcyclohexanecarboxamide], on nLucOGG1 in HeLa cells, the ΔTm at 10 µM is ≤ 6 °C. Further, the Kd on hOGG1 [1] was > 1 µM.

As for `COc1ccc(NC(=O)[C@]2(C)CC[C@@H](N3Cc4c(C)ccc(OC)c4NC3=O)CC2)cc1C` (single isomer, unassigned) [Example 10, (1r,4r)-N-(3-methyl-4-methoxyphenyl)-4-(8-methoxy-5-methyl-2-oxo-1,2-dihydroquinazolin-3(4H)-yl)-1-methylcyclohexanecarboxamide], at nLucOGG1 in HeLa cells, the ΔTm at 10 µM was ≤ 6 °C. For the same molecule, the Kd at hOGG1 [1] was > 1 µM.

For the molecule `Cc1cc(NCCN(C)C)cc2c1CN([C@H]1CC[C@@H](C(=O)Nc3cc4ccccc4[nH]3)CC1)C2=O` [Example 132, (1s,4s)-4-(6-((2-(Dimethylamino)ethyl)amino)-4-methyl-1-oxoisoindolin-2-yl)-N-(1H-indol-2-yl)cyclohexane-1-carboxamide], the ΔTm at 10 µM at nLucOGG1 in HeLa cells was > 10 °C.

On to `Cc1cc(NCCN(C)C)cc2c1CN([C@H]1CC[C@@H](C(=O)Nc3ccc(Cl)c(F)c3)CC1)C2=O` [Example 264, (1s,4s)-N-(4-Chloro-3-fluorophenyl)-4-(6-(2-(dimethylamino)ethylamino)-4-methyl-1-oxoisoindolin-2-yl)cyclohexanecarboxamide], for which the IC50 at hOGG1 [2] was < 0.1 µM.

Consider `COc1cc(NC(=O)[C@H]2CC[C@@H](N3Cc4c(C)cccc4C3=O)CC2)ccc1C#N` [Example 265, (1s,4s)-N-(4-Cyano-3-methoxyphenyl)-4-(4-methyl-1-oxoisoindolin-2-yl)cyclohexanecarboxamide], for which the IC50 on hOGG1 [2] was > 10 µM.

For the molecule `CNCCOc1cc(C)c2c(c1)C(=O)N([C@H]1CC[C@@H](C(=O)Nc3ccc(C)c(OC)c3)CC1)C2` [Example 266, (1s,4s)-N-(3-Methoxy-4-methylphenyl)-4-(4-methyl-6-(2-(methylamino)ethoxy)-1-oxoisoindolin-2-yl)cyclohexanecarboxamide], on hOGG1 [2], the IC50 was < 0.1 µM.

As to `Cc1cc(NCCN(C)C)cc2c1CN([C@H]1CC[C@@H](C(=O)Nc3cc4ccccc4[nH]3)CC1)C2=O` [Example 271, (1s,4s)-4-(6-(2-(dimethylamino)ethylamino)-4-methyl-1-oxoisoindolin-2-yl)-N-(1H-indol-2-yl)cyclohexanecarboxamide], the IC50 on hOGG1 [2] was < 0.1 µM. On hOGG1 [1], this molecule gave a Kd of 0.01 to 0.1 µM.

Regarding `Cc1cccc2c1CN([C@H]1CC[C@@H](C(=O)Nc3ccc4nc[nH]c4c3)CC1)C2=O` [Example 272, (1s,4s)-N-(1H-benzo[d]imidazol-6-yl)-4-(4-methyl-1-oxoisoindolin-2-yl)cyclohexanecarboxamide], the IC50 on hOGG1 [2] fell in the range of 1 to 10 µM.

Turning to `Cc1cccc2c1CN([C@H]1CC[C@@H](C(=O)Nc3cc4ccccc4[nH]3)CC1)C2=O` [Example 273, (1s,4s)-N-(1H-indol-2-yl)-4-(4-methyl-1-oxoisoindolin-2-yl)cyclohexanecarboxamide], the IC50 at hOGG1 [2] lay in the range of 0.1 to 1 µM.

Consider `Cc1cccc2c1CN([C@H]1CC[C@@H](C(=O)Nc3nc4ccccc4[nH]3)CC1)C2=O` [Example 274, (1s,4s)-N-(1H-benzo[d]imidazol-2-yl)-4-(4-methyl-1-oxoisoindolin-2-yl)cyclohexanecarboxamide], for which the IC50 at hOGG1 [2] was 0.1 to 1 µM.

As to `Cc1cccc2c1CN([C@H]1CC[C@@H](C(=O)Nc3ccc4oncc4c3)CC1)C2=O` [Example 275, (1s,4s)-N-(benzo[d]isoxazol-5-yl)-4-(4-methyl-1-oxoisoindolin-2-yl)cyclohexanecarboxamide], the IC50 at hOGG1 [2] was 0.1 to 1 µM.

Take `Cc1cccc2c1CN([C@H]1CC[C@@H](C(=O)Nc3ccc4cc[nH]c4c3)CC1)C2=O` [Example 276, (1s,4s)-N-(1H-indol-6-yl)-4-(4-methyl-1-oxoisoindolin-2-yl)cyclohexanecarboxamide]: at hOGG1 [2], the IC50 was in the range of 1 to 10 µM.

Consider `COc1cc(NC(=O)[C@]2(C)CC[C@@H](N3Cc4c(C)cccc4C3=O)CC2)ccc1C` [Example 278, (1r,4r)-N-(3-methoxy-4-methylphenyl)-1-methyl-4-(4-methyl-1-oxoisoindolin-2-yl)cyclohexane-1-carboxamide], for which the IC50 on hOGG1 [2] was 1 to 10 µM.
